The results in this text go back to PubChem BioAssay AID464 (The Scripps Research Institute Molecular Screening Center, 2006).

Calls of active or inactive are those of the source.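 The calls were made as follows: active = Compounds that kill half the cells at a concentration of 5 micromolar or below, from the fitted or estimated CC50; inactive = CC50 above 5 micromolar.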

In the experiment the test system is Jurkat E6.1 viability, ATP luminescence, 48 h. The experiment is described as follows: viability loss in Jurkat T cells – cell-based, ATP luminescence, 48 h, 60K MLSMR, cytotoxicity control, dose response (AID 464).
The CC50 is the concentration giving 50% cytotoxicity. In the case of `COc1ccc(NS(=O)(=O)c2cc(C)ccc2NC(=O)c2cc(C)oc2C)cc1`, the CC50 was 0.191 µM.
In the case of `CCOC(=O)CSC1=C(C#N)C(c2sccc2C)CC(=O)N1` (stereo unspecified) it was 1.91 µM; in that of `C=CCNc1nc2c(c(=O)n(C)c(=O)n2C)n1CCCCCC`, 2.76 µM; in that of `CCCCn1c(CN2CCN(c3ccccc3)CC2)nc2c1c(=O)n(C)c(=O)n2C`, 10.4 µM (inactive).
As to `O=C(NCc1cccs1)c1noc2c1CCCC2`, the CC50 is 7.48 µM (inactive).
In the case of `OC1(c2cccc(C(F)(F)F)c2)CCN(c2ncnc3c2[nH]c2ccc(F)cc23)CC1` it was 14.4 µM (inactive).
In the case of `CCn1c(NC(=O)c2cccc(Cn3cc(Cl)cn3)c2)nc2ccccc21` it was > 40 µM (inactive).
Take `CCOC(=O)C(C(C)=O)c1c(Br)c(O)c(O)c2c(C(=O)c3ccc(C)cc3)coc12` (stereo unspecified): the CC50 is 6.14 µM (inactive).
Next, `CC(=O)N1CCc2c(sc(NC(=O)c3ccc4c(c3)OCCO4)c2C#N)C1`: 2.6 µM; `CCOC(=O)c1c(C)c(C(=O)Nc2ccc3c(c2)OCCO3)c(C)n1CC`: 7.96 µM (inactive).
Next, `Nc1c(C(=O)NCc2ccccc2)nnn1Cc1cccc(Cl)c1`: 4.49 µM; `COc1ccccc1-c1nnc(Nc2nc3c(OC)cccc3s2)o1`: 0.664 µM; `COc1cc(C2=NOC(C(=O)NCc3ccco3)C2)cc(OC)c1OC` (stereo unspecified): 2.21 µM.
Next, `CS(=O)c1nc(-c2ccc(Br)cc2)cc(-c2ccccc2)c1C#N` (stereo unspecified): 0.631 µM; `COC(=O)c1ccc(Oc2cc(C)nc(SC)n2)cc1`: 1.68 µM; `CCn1nc(-c2cccs2)nc2c(=O)n(C)c(=O)nc1-2`: > 40 µM (inactive).
With `Cc1ccccc1S(=O)(=O)Cc1ccc(C(=O)N2CCN(c3cccc(C)c3C)CC2)o1`, the CC50 was 2.27 µM.
In the case of `Cn1nc(CC(=O)Nc2ccc3c(c2)OCCO3)c2ccccc2c1=O` it was 0.96 µM; in that of `Cc1ccc(Cl)cc1N1CCN(C(=O)COc2ccc(S(=O)(=O)NC(C)C)cc2)CC1`, 6.43 µM (inactive).
In the case of `CCN(CC)C(=O)C1CCCc2c1[nH]c1ccc(Cl)cc21` (stereo unspecified) it was > 40 µM (inactive); in that of `COc1ccc(-c2nc3cc(NC(=O)Cc4ccc(OC)c(OC)c4)ccc3o2)cc1`, > 40 µM (inactive); in that of `O=C(NCC(c1cccs1)N1CCOCC1)c1ccc(Cl)s1` (stereo unspecified), 0.882 µM.
Next, `COc1ccc(Nc2oc(-c3ccccc3Cl)nc2C#N)cc1`: 1.42 µM; `CCC(=O)Nc1nc2ccccc2n1Cc1ccc(C)cc1`: > 40 µM (inactive).
On to `Cn1c(=O)n(C)c2cc(NS(=O)(=O)c3ccc4c(c3)CCCC4)ccc21`, for which the CC50 is 8.18 µM (inactive).
For `CN1CCN(Cc2cc(COCc3ccccc3)c3cccnc3c2O)CC1`, the CC50 is 10.5 µM (inactive).
Next, `CCc1c(C)nc2ncnn2c1NCCc1ccc(OC)cc1`: 0.901 µM; `COc1cc(Cn2c(-c3nonc3N)nc3ccccc32)ccc1C`: 1.55 µM; `CCOC(=O)C1=C(N)n2c(s/c(=C\c3cccs3)c2=O)=C(C(=O)OCC)C1c1cccs1` (stereo unspecified): 4.39 µM.
In the case of `CC1=CC(C)(C)Nc2ccc(OC(=O)c3ccco3)cc21`, the CC50 was 4.78 µM.
`CCCn1nc(C(=O)N2CC(=O)Nc3ccccc32)c2ccccc2c1=O`: the CC50 is 2.81 µM.
In the case of `COc1ccc(-c2nnnn2-c2ccccc2OC)cc1` it was 8.67 µM (inactive); in that of `Cn1c(-c2ccccc2)cc2c3no[n+]([O-])c3ccc21`, 2.41 µM; in that of `O=C(Nc1nc(-c2ccc3c(c2)OCO3)cs1)c1ccncc1`, > 40 µM (inactive).
In the case of `COc1ccc(C2=Nn3c(nnc3-c3ccccc3OC)SC2)cc1OC` it was 0.116 µM.
Next, `Cc1[nH]c2c(C(F)(F)F)cccc2c1CCN`: 10.4 µM (inactive); `N=c1c2c(n(Cc3ccccc3)c3c1CCC3)CCC2`: 3.66 µM; `O=C(Nc1nnc(C2CC2)o1)c1ccc(S(=O)(=O)N2CCCc3ccccc32)cc1`: 22.9 µM (inactive).
As to `Cc1cc(/C=N/n2cnnc2)c(C)n1-c1ccc(OCc2ccc(F)cc2)cc1`, the CC50 was > 13 µM (inactive).
In the case of `Cn1ncc2c(Nc3ccc(-c4ccccc4)cc3)ncnc21` it was > 40 µM (inactive).
Next, `OCCN1CCN(C(c2cccs2)c2ccc3cccnc3c2O)CC1` (stereo unspecified): 13.5 µM (inactive); `COc1cc(C(=O)N2CCN(c3ccc(C)cc3C)CC2)cc(OC)c1OC`: 1.69 µM; `Cc1cc(C)nc(SCC(=O)Nc2ccc(N3CCOCC3)c(Cl)c2)n1`: 5.6 µM (inactive).
In the case of `CC(C)c1cc(C(=O)Nc2cc(Cl)ccc2O)no1` it was > 40 µM (inactive).
For `Cc1cc(C)n(-c2nc3ccccc3c(=O)n2OCC(=O)OCc2ccccc2)n1`, the CC50 is 9.76 µM (inactive).
In the case of `Cc1noc(C)c1COC(=O)c1cccc(S(=O)(=O)N2CCCCCC2)c1` it was 21.4 µM (inactive); in that of `N#Cc1c(NCc2ccccc2)ccnc1NCc1cccnc1`, 4.17 µM; in that of `CS(=O)(=O)c1ncc(Cl)c(C(=O)Nc2ccc(N3CCOCC3)cc2)n1`, 2.61 µM.
Next, `CCOC(=O)c1c(-c2ccc(C)cc2C)csc1NC(=O)CSc1nnnn1C`: 35 µM (inactive); `C=CCN(CC=C)S(=O)(=O)c1ccc2nc(NC(=O)C(C)C)sc2c1`: 3.72 µM.
Next, `Cc1cccc(OCC(=O)Nc2cc(C)ccc2O)c1`: 5.78 µM (inactive); `C=CCOC(=O)c1[nH]c2c(c1C)C(=O)CC(c1ccco1)C2` (stereo unspecified): 0.196 µM.
Consider `Cc1c(C(=O)OC2CCCC2)[nH]c2c1C(=O)CC(c1ccco1)C2` (stereo unspecified), for which the CC50 was 0.167 µM.
Next, `CN1Cc2cc(C(=O)c3cc(Cl)cc(CSc4ncccn4)c3O)cnc2NC1=O`: 0.212 µM; `CNc1nc2c(c(=O)n(C)c(=O)n2C)n1Cc1ccccc1`: 7.54 µM (inactive).
For `Cc1cccc(-n2c(O)c(C=Nc3ccccc3N)c(=O)[nH]c2=O)c1`, the CC50 was > 13 µM (inactive).
In the case of `CCOc1ccccc1CN(Cc1ccco1)S(=O)(=O)c1ccc(-n2cnnn2)c(OC)c1` it was 4.22 µM; in that of `CCOC(=O)CSC1=C(C#N)C(c2ccc(C)o2)CC(=O)N1` (stereo unspecified), 0.535 µM; in that of `O=C(c1cc(-c2ccc(O)cc2)on1)N1CCc2ccccc2C1`, > 40 µM (inactive).
Next, `CCOC(=O)NC1(Nc2ccc(Cl)cn2)Oc2ccccc2O1`: 12.5 µM (inactive); `COc1ccc(-c2nnc(NC(=O)c3ccccc3C)o2)cc1`: > 40 µM (inactive); `CCOC(=O)CS(=O)(=O)c1nc(-c2ccccc2)cc(C(F)(F)F)n1`: 3.42 µM.
In the case of `CCN1CCN(S(=O)(=O)c2cc(OCC(=O)NC3CCCCC3)c(C)cc2Cl)CC1` it was 3.3 µM; in that of `Cn1c(=O)c2c(nc(NCCO)n2CCc2ccccc2)n(C)c1=O`, 9.41 µM (inactive); in that of `CCc1ccc2nc(NC(=O)c3cc(C)on3)sc2c1`, 3.71 µM.
For the compound `CC(=O)c1c(C)[nH]c(C(=O)OCCCCN2C(=O)c3ccccc3C2=O)c1C`, the CC50 is > 40 µM (inactive).
With `C=CCOC(=O)c1[nH]c2c(c1C)C(=O)CC(c1cc(OC)c(OC)c(OC)c1)C2` (stereo unspecified), the CC50 is 24 µM (inactive).
Take `Cc1nnc(Sc2nc(Sc3nnc(C)s3)nc(N3CCN(C)CC3)n2)s1`: the CC50 is 1.34 µM.
In the case of `O=C(Nc1ccc(N2CCCCC2)c(Cl)c1)c1cccnc1` it was > 40 µM (inactive); in that of `CCc1cc2c(=O)n(Cc3ccco3)c(SCc3c(C)noc3C)nc2s1`, 4.4 µM.
Consider `Cc1ccc(C2NC(=O)c3ccccc3N2)s1` (stereo unspecified), for which the CC50 is 4.16 µM.
Take `Cc1ccc2[nH]c(-c3ccccc3)cc(=O)c2c1`: the CC50 was 0.324 µM.
In the case of `CCCCn1c(CN(C)Cc2ccccc2)nc2c1c(=O)n(C)c(=O)n2C` it was 14.8 µM (inactive); in that of `CSC(=Nc1ccccc1)c1c(O)n(C)c(=O)n(C)c1=O`, 17.8 µM (inactive); in that of `CC(Oc1ccc(Cl)cc1Cl)C(=O)Nc1ccncc1` (stereo unspecified), 7.07 µM (inactive).
Next, `Cc1nc2sccn2c1-c1csc(NCc2ccccc2)n1`: 4.81 µM.
In the case of `CCOc1ccccc1NC(=O)CN(c1ccc(OC)cc1)S(=O)(=O)c1c(C)noc1C` it was 1.37 µM; in that of `COC(=O)c1sc(N)c(C(=O)OC)c1COC(=O)c1c(C)noc1C`, 2.35 µM; in that of `Cc1cc(NC(=O)CSc2nc(-c3ccco3)cc(C(F)(F)F)n2)no1`, 0.233 µM.
As to `COc1ccccc1-c1nnc2sc(-c3cc4ccccc4o3)nn12`, the CC50 was 0.214 µM.
Next, `CN(C)c1ccc(-c2nn3c(-c4ccccc4Cl)nnc3s2)cc1`: 0.312 µM.
In the case of `Cc1cc(NC(=O)COc2cccc(Oc3ccccc3)c2)no1` it was 8.94 µM (inactive); in that of `CCOc1ccc(Cl)cc1S(=O)(=O)n1cnc2ccccc21`, 14.8 µM (inactive).
In the case of `CC(=O)Oc1ccc(Oc2ccc(-c3noc(C)n3)cc2)cc1` it was > 40 µM (inactive); in that of `CCOc1ccc(S(=O)(=O)n2cnc3cc(C)c(C)cc32)cc1`, 4.83 µM.
Regarding `COc1cc(NC(=O)c2cc(-c3cccs3)on2)cc(OC)c1OC`, the CC50 is 12.8 µM (inactive).
Next, `CCN(Cc1ccncc1)S(=O)(=O)c1ccc(C(C)=O)cc1`: 9.44 µM (inactive); `CCCCNc1ncnc2c1cnn2-c1ccc(Cl)cc1`: 2.56 µM.
Take `COc1ccc(CCNc2ncnc3c2oc2ccccc23)cc1OC`: the CC50 was 2.72 µM.
Take `c1ccc(CNc2ncnc3c2cnn3-c2ccccc2)cc1`: the 50% cytotoxic concentration (CC50) was 3.54 µM.
Next, `COc1cccc(C2C=C(c3ccc(OC)cc3OC)Nc3nnnn32)c1` (stereo unspecified): 18.4 µM (inactive).
In the case of `COc1ccccc1C1CC(=O)Nc2cc3c(cc21)OCCO3` (stereo unspecified) it was 0.912 µM; in that of `COc1ccc(C)cc1Nc1cc(C)nc2nc(C)nn12`, 7.08 µM (inactive); in that of `CCCCCCOc1ccc(/C(N)=N/O)cc1`, 6.87 µM (inactive).
Next, `Cc1c(C(=O)OCc2ccccc2)[nH]c2c1C(=O)CC(c1ccco1)C2` (stereo unspecified): 0.499 µM; `CN(C)c1nc(N)nc(CSc2nnnn2-c2cccc3ccccc23)n1`: 6.97 µM (inactive).
